pKi: −log10 of the molar value.
Molecular target: human O-GlcNAcase (Homo sapiens (Human), UniProt O60502)
Test: Assay for determination of KI values for inhibition of O-GlcNAcase activity
Assay type: biochemical
Details: purified human O-GlcNAcase 0.7 nM; substrate 2 mM 4-Methylumbelliferyl N-acetyl-β-D-glucosaminide; pH 7.0; room temperature; Cheng-Prusoff; read-out: hOGA Ki
Experimental: Assay for Determination of KI Values for Inhibition of O-GlcNAcase Activity
Experimental procedure for kinetic analyses: Enzymatic reactions were carried out in a reaction containing 50 mM NaH2PO4, 100 mM NaCl and 0.1% BSA (pH 7.0) using 2 mM 4-Methylumbelliferyl N-acetyl-β-D-glucosaminide dihydrate (Sigma M2133) dissolved in ddH2O, as a substrate. The amount of purified human O-GlcNAcase enzyme used in the reaction was 0.7 nM. Test compound of varying concentrations was added to the enzyme prior to initiation of the reaction. The reaction was performed at room temperature in a 96-well plate and was initiated with the addition of substrate. The production of fluorescent product was measured every 60 sec for 45 min with a Tecan Infinite M200 plate-reader with excitation at 355 nm and emission detected at […], with 4-Methylumbelliferone (Sigma M1381) used to produce a standard curve. The slope of product production was determined for each concentration of compound tested and plotted, using standard curve fitting algorithms for sigmoidal dose response curves. The values for a four parameter logistic curve fit of the data were determined. KI values were determined using the Cheng-Prusoff equation; the Km of O-GlcNAcase for substrate was 0.2 mM.

Sequence of human O-GlcNAcase (O60502 whole entry): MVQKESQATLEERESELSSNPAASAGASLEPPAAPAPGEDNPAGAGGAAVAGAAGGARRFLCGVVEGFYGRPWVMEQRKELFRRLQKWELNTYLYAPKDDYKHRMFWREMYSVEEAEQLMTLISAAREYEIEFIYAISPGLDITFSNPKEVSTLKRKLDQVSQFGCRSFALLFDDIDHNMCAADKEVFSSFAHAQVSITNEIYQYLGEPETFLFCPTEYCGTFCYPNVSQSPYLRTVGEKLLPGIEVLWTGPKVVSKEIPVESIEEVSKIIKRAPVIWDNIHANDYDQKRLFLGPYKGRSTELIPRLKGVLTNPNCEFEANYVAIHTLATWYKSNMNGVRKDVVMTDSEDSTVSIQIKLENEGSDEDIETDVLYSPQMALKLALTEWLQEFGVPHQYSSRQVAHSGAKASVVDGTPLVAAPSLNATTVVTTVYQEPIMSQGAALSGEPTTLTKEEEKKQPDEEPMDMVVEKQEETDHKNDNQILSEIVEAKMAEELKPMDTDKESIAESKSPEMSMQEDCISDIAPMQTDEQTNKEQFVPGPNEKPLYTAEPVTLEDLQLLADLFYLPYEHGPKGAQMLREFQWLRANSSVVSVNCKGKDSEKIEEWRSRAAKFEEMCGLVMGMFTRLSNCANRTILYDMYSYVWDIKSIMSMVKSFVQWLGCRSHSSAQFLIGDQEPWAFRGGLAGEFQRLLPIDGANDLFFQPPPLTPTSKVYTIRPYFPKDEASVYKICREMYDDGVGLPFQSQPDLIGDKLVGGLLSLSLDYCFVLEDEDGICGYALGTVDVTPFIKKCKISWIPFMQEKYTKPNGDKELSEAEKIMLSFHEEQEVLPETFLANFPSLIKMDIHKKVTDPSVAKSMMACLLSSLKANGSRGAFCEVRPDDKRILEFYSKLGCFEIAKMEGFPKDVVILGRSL

SMILES: CC(=O)Nc1ncc(CN2CCC(=Cc3ccc(CCO)cc3)CC2)s1 [Example 50, N-(5-((4-(4-(2-hydroxyethyl)benzylidene)piperidin-1-yl)methyl)thiazol-2-yl)acetamide]
- pKi: 9.62

SMILES: CC(=O)Nc1ncc(CN2CCC(=Cc3ccc(C(=O)N(C)C)cc3)CC2)s1 [Example 31, 4-((1-((2-acetamidothiazol-5-yl)methyl)piperidin-4-ylidene)methyl)-N,N-dimethylbenzamide]
- pKi: 9.93

SMILES: CC(=O)Nc1ncc(CN2CC/C(=C/c3ccccc3)C[C@@H]2C)s1 [Example 34, (S,Z)-N-(5-{(4-benzylidene-2-methylpiperidin-1-yl)methyl)thiazol-2-yl)acetamide]
- pKi: 8.98

SMILES: CC(=O)Nc1ncc(CN2CCC(=Cc3ccc(C)cc3)CC2)s1 [Example 13, N-(5-((4-(4-methylbenzylidene)piperidin-1-yl)methyl)thiazol-2-yl)acetamide]
- pKi: 9.13

SMILES: CNC(=O)c1ccc(C=C2CCN(Cc3cnc(NC(C)=O)s3)CC2)cc1 [Example 30, 4-[(1-{[2-(acetylamino)-1,3-thiazol-5-yl]methyl}piperidin-4-ylidene)methyl]-N-methylbenzamide]
- pKi: 9.37

SMILES: CC(=O)Nc1ncc(CN2CCC(=Cc3ccc4[nH]ccc4c3)CC2)s1 [Example 18, N-(5-{[4-(1H-indol-5-ylmethylidene)piperidin-1-yl]methyl}-1,3-thiazol-2-yl)acetamide]
- pKi: 9.37

SMILES: CC(=O)Nc1ncc(CN2CCC(=Cc3ccc4c(c3)CNC4=O)CC2)s1 [Example 21, N-(5-((4-((1-oxoisoindolin-5-yl)methylene)piperidin-1-yl)methyl)thiazol-2-yl)acetamide]
- pKi: 9.57

SMILES: CC(=O)Nc1ncc(CN2CCC(=Cc3cncnc3)CC2)s1 [Example 15, N-(5-((4-(pyrimidin-5-ylmethylene)piperidin-1-yl)methyl)thiazol-2-yl)acetamide]
- pKi: 8.47

SMILES: CC(=O)Nc1ncc(CN2CC/C(=C/c3ccc(F)nc3)C[C@H]2C)s1 [Example 51, (R,Z)—N-(5-((4-((6-fluoropyridin-3-yl)methylene)-2-methylpiperidin-1-yl)methyl)thiazol-2-yl)acetamide]
- pKi: 6.66

SMILES: CC(=O)Nc1ncc(CN2CC/C(=C\c3ccccc3)C[C@H]2C)s1 [Example 36, (R,E)-N-(5-((4-benzylidene-2-methylpiperidin-1-yl)methyl)thiazol-2-yl)acetamide]
- pKi: 6.39

SMILES: CC(=O)Nc1ncc(CN2CC/C(=C/c3ccc(F)nc3)C[C@@H]2C)s1 [Example 52, (S,Z)—N-(5-((4-((6-fluoropyridin-3-yl)methylene)-2-methylpiperidin-1-yl)methyl)thiazol-2-yl)acetamide]
- pKi: 9.41

SMILES: CC(=O)Nc1ncc(CN2CCC(=Cc3ccc(C(N)=O)cc3)CC2)s1 [Example 9, 4-((1-((2-acetamidothiazol-5-yl)methyl)-piperidin-4-ylidene)methyl)benzamide]
- pKi: 9.53

SMILES: CC(=O)Nc1ncc(CN2CCC(=Cc3ccc(S(=O)(=O)N(C)C)cc3)CC2)s1 [Example 17, N-(5-((4-(4-(N,N-dimethylsulfamoyl)benzylidene)piperidin-1-yl)methyl)thiazol-2-yl)acetamide]
- pKi: 10.02

SMILES: CC(=O)Nc1ncc(CN2CCC(=Cc3ccc(O)nc3)CC2)s1 [Example 3, N-(5-((4-((6-hydroxypyridin-3-yl)methylene)piperidin-1-yl)methyl)thiazol-2-yl)acetamide]
- pKi: 8.96

SMILES: CC(=O)Nc1ncc(CN2CCC(=Cc3cccc(CO)c3)CC2)s1 [Example 7, N-(5-((4-(3-(hydroxymethyl)benzylidene)piperidin-1-yl)methyl)thiazol-2-yl)acetamide]
- pKi: 9.16

SMILES: CC(=O)Nc1ncc(CN2CCC(=Cc3ccccc3)CC2)s1 [Example 33, N-(5-{[4-(phenyl-methylidene)piperidin-1-yl]methyl}-1,3-thiazol-2-yl)acetamide]
- pKi: 8.76

SMILES: CC(=O)Nc1ncc(CN2CCC(=Cc3ccc(OC(=O)OC(C)(C)C)cc3)CC2)s1 [Example 5, 4-((1-((2-acetamidothiazol-5-yl)methyl)piperidin-4-ylidene)methyl)phenyl tert-butyl carbonate]
- pKi: 8.45

SMILES: COC(=O)c1ccc(C=C2CCN(Cc3cnc(NC(C)=O)s3)CC2)cc1 [Example 24, methyl 4-((1-((2-acetamidothiazol-5-yl)methyl)piperidin-4-ylidene)methyl)benzoate]
- pKi: 8.86

SMILES: COc1ccc(C=C2CCN(Cc3cnc(NC(C)=O)s3)CC2)cc1OC [Example 1, N-(5-((4-(3,4-dimethoxybenzylidene)piperidin-1-yl)methyl)thiazol-2-yl)acetamide]
- pKi: 9.41

SMILES: CC(=O)Nc1ncc(CN2CCC(=Cc3ccc(F)cc3)CC2)s1 [Example 32, N-[5-({4-[(4-fluorophenyl)methylidene]piperidin-1-yl}methyl)-1,3-thiazol-2-yl]acetamide]
- pKi: 8.57

SMILES: CC(=O)Nc1ncc(CN2CCC(=Cc3ccc(CCF)cc3)CC2)s1 [Example 27, N-(5-((4-(4-(2-fluoroethyl)-benzylidene)piperidin-1-yl)methyl)thiazol-2-yl)acetamide]
- pKi: 9.39

SMILES: CC(=O)Nc1ncc(CN2CCC(=Cc3ccc(-c4ccccc4)cc3)CC2)s1 [Example 48, N-(5-((4-([1,1′-biphenyl]-4-ylmethylene)piperidin-1-yl)methyl)thiazol-2-yl)acetamide]
- pKi: 7.27

SMILES: CC(=O)Nc1ncc(CN2CCC(=Cc3ccc(N)nc3)CC2)s1 [Example 6, N-[5-({4-[(6-aminopyridin-3-yl)methylidene]piperidin-1-yl}methyl)-1,3-thiazol-2-yl]acetamide]
- pKi: 9.20

SMILES: CC(=O)Nc1ncc(CN2CCC(=Cc3ccc(OCCF)cc3)CC2)s1 [Example 42, N-{5-[(4-{[4-(2-fluoroethoxy)phenyl]methylidene}piperidin-1-yl)methyl]-1,3-thiazol-2-yl}acetamide]
- pKi: 9.20

SMILES: CC(=O)Nc1ncc(CN2CCC(=Cc3ccc(OC(F)(F)F)cc3)CC2)s1 [Example 11, N-(5-((4-(4-(trifluoromethoxy)benzylidene)-piperidin-1-yl)methyl)thiazol-2-yl)acetamide]
- pKi: 8.50

SMILES: CC(=O)Nc1ncc(CN2CC/C(=C/c3ccccc3)C[C@H]2C)s1 [Example 35, (R,Z)-N-(5-((4-benzylidene-2-methylpiperidin-1-yl)methyl)thiazol-2-yl)acetamide]
- pKi: 7.25

SMILES: CC(=O)Nc1ncc(CN2CCC(=Cc3ccc4c(c3)OCCO4)CC2)s1 [Example 20, N-(5-{[4-(2,3-dihydro-1,4-benzodioxin-6-ylmethylidene)piperidin-1-yl]methyl}-1,3-thiazol-2-yl)acetamide]
- pKi: 8.75

SMILES: CC(=O)Nc1ncc(CN2CCC(=Cc3ccc(C(=O)O)cc3)CC2)s1 [Example 29, 4-[(1-{[2-(acetylamino)-1,3-thiazol-5-yl]methyl}piperidin-4-ylidene)methyl]benzoic acid]
- pKi: 9.49

SMILES: COc1ccc(/C=C2\CCN(Cc3cnc(NC(C)=O)s3)[C@@H](C)C2)cc1 [Example 41, (S,E)-N-(5-((4-(4-methoxybenzylidene)-2-methylpiperidin-1-yl)methyl)thiazol-2-yl)acetamide]
- pKi: 8.02

SMILES: CC(=O)Nc1ncc(CN2CCC(=Cc3cn[nH]c3)CC2)s1 [Example 8, N-(5-((4-((1H-pyrazol-4-yl)methylene)piperidin-1-yl)methyl)thiazol-2-yl)acetamide]
- pKi: 9.41

SMILES: C=CCOc1ccc(C=C2CCN(Cc3cnc(NC(C)=O)s3)CC2)cc1 [Example 45, N-{5-[(4-{[4-(prop-2-en-1-yloxy)phenyl]methylidene}piperidin-1-yl)methyl]-1,3-thiazol-2-yl}acetamide]
- pKi: 8.21

SMILES: COc1ccc(C=C2CCN(Cc3cnc(NC(C)=O)s3)CC2)cc1O [Example 23, N-[5-({4-[(3-hydroxy-4-methoxyphenyl)methylidene]piperidin-1-yl}methyl)-1,3-thiazol-2-yl]acetamide]
- pKi: 8.82

SMILES: CC(=O)N(C)c1ncc(CN2CCC(=Cc3ccc(CCF)cc3)CC2)s1 [Example 28, N-(5-((4-(4-(2-fluoroethyl)benzylidene)-piperidin-1-yl)methyl)thiazol-2-yl)-N-methylacetamide]
- pKi: 8.24

SMILES: COc1cccc(C=C2CCN(Cc3cnc(NC(C)=O)s3)CC2)c1 [Example 43, N-(5-((4-(3-methoxybenzylidene)piperidin-1-yl)methyl)thiazol-2-yl)acetamide]
- pKi: 8.53

SMILES: COc1cc(C=C2CCN(Cc3cnc(NC(C)=O)s3)CC2)ccc1O [Example 22, N-[5-({4-[(4-hydroxy-3-methoxyphenyl)methylidene]piperidin-1-yl}methyl)-1,3-thiazol-2-yl]acetamide]
- pKi: 9.20

SMILES: COc1ccccc1C=C1CCN(Cc2cnc(NC(C)=O)s2)CC1 [Example 47, N-(5-((4-(2-methoxybenzylidene)piperidin-1-yl)methyl)thiazol-2-yl)acetamide]
- pKi: 8.61

SMILES: CC(=O)Nc1ncc(CN2CCC(=Cc3cccc(CC(N)=O)c3)CC2)s1 [Example 10, 2-(3-((1-((2-acetamidothiazol-5-yl)methyl)-piperidin-4-ylidene)methyl)phenyl) acetamide]
- pKi: 9.21

SMILES: CCc1ccc(C=C2CCN(Cc3cnc(NC(C)=O)s3)CC2)cc1 [Example 12, N-(5-((4-(4-ethylbenzylidene)piperidin-1-yl)methyl)thiazol-2-yl)acetamide]
- pKi: 9.15

Reference: US10913733B2, “Substituted piperidines thiazolyl acetamides as glycosidase inhibitors and uses thereof” (priority 2015, dated 2021)
